Results reported in PubChem BioAssay (NCI).
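In this assay, cells in 96-well plates receive the compound at five concentrations for 48 hours. Endpoints are linearly interpolated between the surrounding concentrations. GI50 marks 50% less growth. TGI denotes the concentration required for complete inhibition of growth.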

Assays:
Test in all cases: DTP human tumour cell line panel, 48 h
NCI-H522 lung = system: NCI-H522 lung
U251 CNS = system: U251 CNS
RXF 393 renal = system: RXF 393 renal
M14 melanoma = system: M14 melanoma
OVCAR-8 ovarian = system: OVCAR-8 ovarian
NCI-H226 lung = system: NCI-H226 lung
UACC-257 melanoma = system: UACC-257 melanoma
SN12C renal = system: SN12C renal
ACHN renal = system: ACHN renal
A498 renal = system: A498 renal

SMILES	TGI (NCI-H522 lung) [µM]	TGI (U251 CNS) [µM]	TGI (RXF 393 renal) [µM]	TGI (M14 melanoma) [µM]	TGI (OVCAR-8 ovarian) [µM]	TGI (NCI-H226 lung) [µM]	TGI (UACC-257 melanoma) [µM]	TGI (SN12C renal) [µM]	TGI (ACHN renal) [µM]	TGI (A498 renal) [µM]	GI50 (UACC-257 melanoma) [µM]
COc1ccc(C2S/C(=C\c3cccc(OC)c3)C(=O)N2NC(=O)Cc2ccccc2)cc1 (configuration not stated)	> 100	> 100	> 100	> 100	> 100	> 100	> 100	> 100	> 100	> 100	–
COc1cccc2c1C(=O)c1c(O)c3c(c(O)c1C2=O)C[C@@](O)(C(=O)CN1CCOCC1)C[C@@H]3OC1CC(N)C(O)C(C)O1 (some centres not stated)	15.4	> 100	23.9	–	89.5	8.78	–	> 100	–	31.1	11.3
COc1ccc(OC)c(NC2=NCCO2)c1	> 100	> 100	> 100	> 100	> 100	> 100	> 100	> 100	> 100	> 100	–
O=C(N/N=C\c1cccs1)c1ccncc1	> 100	> 100	> 100	> 100	> 100	> 100	> 100	> 100	> 100	> 100	–
COC1=CC(=O)c2c(cc(COP(N)(=O)N(CCCl)CCCl)n2C)C1=O (configuration not stated)	0.802	6.77	2.95	2.74	3.2	1.32	14.2	1.31	1.18	5.39	–
CNC(=O)c1cc2nc3ccccc3c(=O)n2c2ccccc12	> 10	> 10	> 10	> 10	> 10	> 10	> 10	> 10	> 10	> 10	–
Oc1cc(O)c2c(c1)O[C@H](c1cc(O)c(O)c(O)c1)[C@@H](O)C2	35.1	34.5	30.7	57.6	31.1	86.5	> 100	33	48	> 100	–
C=C1C(=O)[C@]23C[C@H]1C[C@@H](O)[C@H]2[C@]1(COC3=O)[C@@H](OC(C)=O)CC[C@@](C)(COC(C)=O)[C@H]1C=O	14.6	> 50	> 50	–	> 50	19	> 50	> 50	> 50	> 50	–
CC(=O)OC12CC(C(F)(F)F)(C(F)(F)F)OC1(OC(C)=O)CC(C(F)(F)F)(C(F)(F)F)O2 (configuration not stated)	> 100	19.2	77.7	> 100	> 100	> 100	> 100	> 100	2.38	8.57	–
NC(=S)Nc1ccc2c(c1)oc1ccccc12	> 100	> 100	> 100	> 100	> 100	> 100	> 100	> 100	> 100	> 100	–
Cc1ccc(S(=O)(=O)/N=C2/N(C)CCCS2(=O)=O)cc1	> 100	> 100	> 100	> 100	> 100	> 100	> 100	> 100	> 100	> 100	–
CC(=O)NNC(=S)/N=C\c1c(O)c2ccccc2oc1=O	> 100	> 100	> 100	> 100	> 100	> 100	> 100	> 100	> 100	> 100	–
COC(=O)c1ccccc1NC(=S)NN(C)C	> 100	> 100	> 100	> 100	> 100	> 100	> 100	–	> 100	> 100	–
COC1=CC(=O)C2C(C1=O)[C@@H]1c3ccccc3OC(C)(C)[C@H]21 (some centres not stated)	27.7	> 100	27.1	33.8	42.2	54.7	> 100	–	27.2	> 100	–
O=S(c1ccccc1)C1CC2CC3(CCC21O)OCCO3 (configuration not stated)	> 100	> 100	> 100	> 100	> 100	> 100	> 100	–	> 100	> 100	–
Cc1ccc(S(=O)(=O)NC(=O)NCCc2ccc(O)c(O)c2)cc1	> 100	> 100	> 100	> 100	> 100	> 100	–	–	> 100	> 100	–
